From publication PMC6792352, “Limited Chemical Structural Diversity Found to Modulate Thyroid Hormone Receptor in the Tox21 Chemical Library” (Environmental Health Perspectives, 2019)
Where a name gives a salt, the structure may show the parent alone. Positions of bridges follow the written chain, without caps; N, C: chain ends. Residues, ends and D or L forms follow the SMILES beside them.

experiment: in vitro; conditions: rat, gh3-tre-luc cells, AC50 (uM) modified / 1000

| SMILES | CC50 at 24 h [µM] |
| --- | --- |
| CCC(C)c1cc(C(C)(C)C)c(O)c(C(C)(C)C)c1 (stereo not shown) [4-(Butan-2-yl)-2,6-di-tert-butylphenol] | > 90 |
| Cn1sc(Cl)cc1=O [5-Chloro-2-methyl-3(2H)-isothiazolone] | 65.6 |
| Cc1ccc(Cl)c(N)c1Cl [2,6-Dichloro-3-methylaniline] | > 90 |
| c1ccc2c(c1)ccc1ncccc12 [Benzo(f)quinoline] | > 90 |
| CCCCOC(=O)CCS [Butyl 3-mercaptopropionate] | > 90 |
| CC(C)(C)OC(=O)N1C[C@@H](F)C[C@H]1C(=O)O [1,2-Pyrrolidinedicarboxylicacid,4-fluoro-,1-(1,1-dimethylethyl)ester,(2S,4S)-] | > 90 |
| CCN(CC)CCO[C@H]1CC[C@@]2(C)C(=CC[C@@H]3[C@@H]2CC[C@]2(C)C(=O)CC[C@@H]32)C1 [3beta-(2-Diethylaminoethoxy)androst-5-en-17-one hydrochloride] | > 50 |
| NCCCC[C@H](NC(=O)[C@@H]1CCCN1C(=O)[C@@H]1CSSC[C@H](NC(=O)CNC(=O)CNC(=O)CN)C(=O)N[C@@H](Cc2ccc(O)cc2)C(=O)N[C@@H](Cc2ccccc2)C(=O)N[C@@H](CCC(N)=O)C(=O)N[C@@H](CC(N)=O)C(=O)N1)C(=O)NCC(N)=O [Terlipressin] (H-GGGCYFQNCPKG-NH2; disulfide 4-9) | > 50 |
| CCCCCCCCCCCOC(=O)c1ccccc1C(=O)OCCCCCCCCCCC [Diundecyl phthalate] | > 50 |
| CC(C)(C)C(O)/C(=C\c1ccc(Cl)cc1Cl)n1cncn1 (stereo not shown) [Diniconazole] | 73.4 |
| Nc1ccc(C(=O)NCC(=O)O)cc1 [Aminohippuric acid] | > 20 |
| CCCn1cc[n+](C)c1 [1-Methyl-3-propylimidazolium iodide] | > 90 |
| COc1ccc(C(=O)c2ccc(O)cc2)c(OC)c1 [(2,4-dimethoxyphenyl)(4-hydroxyphenyl)methanone] | > 90 |
| O=C(O)[C@H](O)[C@@H](O)[C@H](O[C@@H]1O[C@H](CO)[C@H](O)[C@H](O)[C@H]1O)[C@H](O)CO [Lactobionic acid] | > 20 |
| Cc1ccc2c(C)cccc2c1 [1,6-Dimethylnaphthalene] | > 90 |
| Nc1ccc2c(O)cc(S(=O)(=O)O)cc2c1 [7-Amino-4-hydroxynaphthalene-2-sulfonic acid] | 89.3 |
| Cc1ccc(N)cc1[N+](=O)[O-] [4-Methyl-3-nitroaniline] | > 90 |
| CC[C@@]1(O)C(=O)OCc2c1cc1n(c2=O)Cc2cc3c([N+](=O)[O-])cccc3nc2-1 [Rubitecan] | 1.34 |
| CC(O)C(CO)C(C)O (stereo not shown) [3-(Hydroxymethyl)pentane-2,4-diol] | > 90 |
| CN1CCN(C(=O)O[C@H]2c3nccnc3C(=O)N2c2ccc(Cl)cn2)CC1 [Eszopiclone] | > 50 |
| CC(=O)OCC(COC(C)=O)OC(C)=O [Triacetin] | > 90 |
| Nc1cc(Cl)c(N)c(Cl)c1 [2,6-Dichloro-1,4-benzenediamine] | > 90 |
| CCNCCO [2-(Ethylamino)ethanol] | > 90 |
| CC1(C)CCC[C@]2(C)[C@H]3CCO[C@]3(C)CC[C@@H]12 [(-)-Ambroxide] | > 90 |
| NCCN1CCNC1=O [1-(2-Aminoethyl)imidazolidin-2-one] | > 90 |
| Clc1nc(C(Cl)(Cl)Cl)c(Cl)c(Cl)c1Cl [2,3,4,5-Tetrachloro-6-(trichloromethyl)pyridine] | 22.4 |
| COc1cc2nc(N3CCN(C(=O)C4CCCO4)CC3)nc(N)c2cc1OC (stereo not shown) [Terazosin hydrochloride] | > 50 |

same assay, conditions: rat, gh3-tre-luc cells, AC50 (uM) modified / 1000, Tox21_110001=Tox21_112069; viability, 1 nM T3 present, 24 h

| SMILES | CC50 at 24 h [µM] |
| --- | --- |
| CCOP(=O)(OCC)O/C(=C\Cl)c1ccc(Cl)cc1Cl [Chlorfenvinphos] | > 50 |

same assay, conditions: rat, gh3-tre-luc cells, AC50 (uM) modified / 1000, Tox21_110001=Tox21_112889; viability, 1 nM T3 present, 24 h

| SMILES | CC50 at 24 h [µM] |
| --- | --- |
| CNC(C)Cc1ccc2c(c1)OCO2 (stereo not shown) [1-(1,3-Benzodioxol-5-yl)-N-methylpropan-2-amine hydrochloride] | > 100 |

same assay, conditions: rat, gh3-tre-luc cells, AC50 (uM) modified / 1000, Tox21_110001=Tox21_201129; viability, 1 nM T3 present, 24 h

| SMILES | CC50 at 24 h [µM] |
| --- | --- |
| C=CCOC(=O)c1ccccc1N [Allyl anthranilate] | > 90 |

same assay, conditions: rat, gh3-tre-luc cells, AC50 (uM) modified / 1000, Tox21_110001=Tox21_301573; viability, 1 nM T3 present, 24 h

| SMILES | CC50 at 24 h [µM] |
| --- | --- |
| CCOP(=O)(OCC)O/C(=C\Cl)c1ccc(Cl)cc1Cl [Chlorfenvinphos] | > 90 |
